Results published in ChEMBL document CHEMBL1201862, “PubChem BioAssay data set” (2004).
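These data come from cells grown in 96-well plates and exposed to compound for 48 hours at five concentrations. GI50 marks 50% less growth.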 Active and inactive are the calls of the source. Cut-off read from the data, not from the text of the source: active = GI50 up to about 1.1 µM and inactive = higher.

What was measured:
Assay in all cases: inhibition of tumour cell growth, NCI panel, 48 h
[1] = system: SF-295
[2] = system: SK-MEL-28
[3] = system: SNB-75
[4] = system: SF-539
[5] = system: A498
[6] = system: LXFL 529
[7] = system: UACC-62
[8] = system: M19-MEL
[9] = system: A549
[10] = system: RPMI-8226
[11] = system: HOP-92
[12] = system: UO-31
[13] = system: DMS-114
[14] = system: COLO 205
[15] = system: SK-MEL-5
[16] = system: OVCAR-4
[17] = system: SK-OV-3
[18] = system: K562
[19] = system: HL-60
[20] = system: ACHN
[21] = system: EKVX
[22] = system: HCC 2998
[23] = system: UACC-257
[24] = system: SNB-78
[25] = system: MOLT-4
[26] = system: HCT-116
[27] = system: HCT-15
[28] = system: SR
[29] = system: OVCAR-8
[30] = system: XF498
[31] = system: RXF 393
[32] = system: CAKI-1
[33] = system: 786-0
[34] = system: LOX IMVI
[35] = system: SN12C
[36] = system: SW-620
[37] = system: NCI-H226
[38] = system: HOP-18
[39] = system: HOP-62
[40] = system: CCRF-CEM
[41] = system: NCI-H522
[42] = system: OVCAR-5
[43] = system: HT-29
[44] = system: NCI-H460
[45] = system: TK-10
[46] = system: SF-268
[47] = system: KM12
[48] = system: DMS-273
[49] = system: U-251
[50] = system: OVCAR-3
[51] = system: Malme-3M
[52] = system: NCI-H23
[53] = system: SNB-19
[54] = system: SK-MEL-2
[55] = system: IGROV-1
[56] = system: KM-20L2
[57] = system: DLD-1
[58] = system: M14

Q: `CCCCCCCCCCCC1CC(=O)NCCCN(C)CCCCN(C)CCCN1C` (stereo not given) [BUDMUNCHIAMINE A] was tested. Which GI50 [1] did it give?
A: 1.64 µM (inactive)

Q: And the GI50 [2]?
A: 1.69 µM (inactive)

Q: And the GI50 [3]?
A: 1.59 µM (inactive)

Q: And the GI50 [4]?
A: 1.75 µM (inactive)

Q: What about the GI50 [5] of the same molecule?
A: 1.67 µM (inactive)

Q: And the GI50 [6]?
A: 1.72 µM (inactive)

Q: What about the GI50 [7] of the same molecule?
A: 1.68 µM (inactive)

Q: What about the GI50 [8] of the same molecule?
A: 1.76 µM (inactive)

Q: And the GI50 [9]?
A: 1.76 µM (inactive)

Q: What about the GI50 [10] of the same molecule?
A: 0.828 µM (active)

Q: What about the GI50 [11] of the same molecule?
A: 1.39 µM (inactive)

Q: And the GI50 [12]?
A: 1.72 µM (inactive)

Q: What about the GI50 [13] of the same molecule?
A: 1.78 µM (inactive)

Q: What about the GI50 [14] of the same molecule?
A: 1.53 µM (inactive)

Q: What about the GI50 [15] of the same molecule?
A: 1.97 µM (inactive)

Q: And the GI50 [16]?
A: 1.74 µM (inactive)

Q: What about the GI50 [17] of the same molecule?
A: 1.8 µM (inactive)

Q: What about the GI50 [18] of the same molecule?
A: 0.261 µM (active)

Q: And the GI50 [19]?
A: 0.395 µM (active)

Q: What about the GI50 [20] of the same molecule?
A: 1.69 µM (inactive)

Q: And the GI50 [21]?
A: 1.78 µM (inactive)

Q: What about the GI50 [22] of the same molecule?
A: 1.74 µM (inactive)

Q: What about the GI50 [23] of the same molecule?
A: 1.68 µM (inactive)

Q: And the GI50 [24]?
A: 1.79 µM (inactive)

Q: What about the GI50 [25] of the same molecule?
A: 1.95 µM (inactive)

Q: What about the GI50 [26] of the same molecule?
A: 1.55 µM (inactive)

Q: What about the GI50 [27] of the same molecule?
A: 1.63 µM

Q: And the GI50 [28]?
A: 0.23 µM (active)

Q: What about the GI50 [29] of the same molecule?
A: 1.89 µM (inactive)

Q: And the GI50 [30]?
A: 1.65 µM (inactive)

Q: And the GI50 [31]?
A: 1.6 µM (inactive)

Q: What about the GI50 [32] of the same molecule?
A: 2.08 µM (inactive)

Q: And the GI50 [33]?
A: 1.55 µM (inactive)

Q: And the GI50 [34]?
A: 1.48 µM (inactive)

Q: What about the GI50 [35] of the same molecule?
A: 1.74 µM (inactive)

Q: And the GI50 [36]?
A: 1.06 µM (active)

Q: What about the GI50 [37] of the same molecule?
A: 1.93 µM (inactive)

Q: What about the GI50 [38] of the same molecule?
A: 1.77 µM (inactive)

Q: What about the GI50 [39] of the same molecule?
A: 1.66 µM (inactive)

Q: And the GI50 [40]?
A: 0.156 µM (active)

Q: What about the GI50 [41] of the same molecule?
A: 1.81 µM (inactive)

Q: What about the GI50 [42] of the same molecule?
A: 1.85 µM (inactive)

Q: And the GI50 [43]?
A: 1.56 µM (inactive)

Q: And the GI50 [44]?
A: 1.36 µM (inactive)

Q: And the GI50 [45]?
A: 1.73 µM (inactive)

Q: And the GI50 [46]?
A: 1.85 µM (inactive)

Q: And the GI50 [47]?
A: 1.58 µM (inactive)

Q: And the GI50 [48]?
A: 1.24 µM (inactive)

Q: What about the GI50 [49] of the same molecule?
A: 1.66 µM (inactive)

Q: What about the GI50 [50] of the same molecule?
A: 1.69 µM (inactive)

Q: And the GI50 [51]?
A: 1.9 µM (inactive)

Q: What about the GI50 [52] of the same molecule?
A: 1.73 µM (inactive)

Q: And the GI50 [53]?
A: 1.7 µM (inactive)

Q: What about the GI50 [54] of the same molecule?
A: 1.75 µM (inactive)

Q: And the GI50 [55]?
A: 1.82 µM (inactive)

Q: What about the GI50 [56] of the same molecule?
A: 1.65 µM (inactive)

Q: And the GI50 [57]?
A: 1.6 µM (inactive)

Q: And the GI50 [58]?
A: 1.8 µM (inactive)

Q: With `O=C(Nc1cccc(O)c1)C(=O)C1C(=O)NC(=S)NC1=O` as the molecule, how does the GI50 [1] read?
A: > 100 µM (inactive)

Q: What about the GI50 [2] of the same molecule?
A: > 100 µM (inactive)

Q: And the GI50 [3]?
A: > 100 µM (inactive)

Q: And the GI50 [4]?
A: > 100 µM (inactive)

Q: And the GI50 [5]?
A: > 100 µM (inactive)

Q: What about the GI50 [6] of the same molecule?
A: > 100 µM (inactive)

Q: What about the GI50 [7] of the same molecule?
A: > 100 µM (inactive)

Q: What about the GI50 [8] of the same molecule?
A: > 100 µM (inactive)

Q: What about the GI50 [9] of the same molecule?
A: > 100 µM (inactive)

Q: What about the GI50 [10] of the same molecule?
A: > 100 µM (inactive)

Q: What about the GI50 [11] of the same molecule?
A: > 100 µM (inactive)

Q: And the GI50 [12]?
A: > 100 µM (inactive)

Q: What about the GI50 [13] of the same molecule?
A: > 100 µM (inactive)

Q: And the GI50 [14]?
A: > 100 µM (inactive)

Q: And the GI50 [15]?
A: > 100 µM (inactive)

Q: What about the GI50 [16] of the same molecule?
A: > 100 µM (inactive)

Q: What about the GI50 [17] of the same molecule?
A: > 100 µM (inactive)

Q: And the GI50 [18]?
A: > 100 µM (inactive)

Q: What about the GI50 [19] of the same molecule?
A: > 100 µM (inactive)

Q: What about the GI50 [20] of the same molecule?
A: > 100 µM (inactive)

Q: What about the GI50 [21] of the same molecule?
A: > 100 µM (inactive)

Q: What about the GI50 [22] of the same molecule?
A: > 100 µM (inactive)

Q: What about the GI50 [23] of the same molecule?
A: > 100 µM (inactive)

Q: And the GI50 [24]?
A: > 100 µM (inactive)

Q: And the GI50 [25]?
A: > 100 µM (inactive)

Q: And the GI50 [26]?
A: > 100 µM (inactive)

Q: What about the GI50 [27] of the same molecule?
A: > 100 µM

Q: What about the GI50 [28] of the same molecule?
A: > 100 µM (inactive)

Q: What about the GI50 [29] of the same molecule?
A: > 100 µM (inactive)

Q: What about the GI50 [30] of the same molecule?
A: > 100 µM (inactive)

Q: And the GI50 [31]?
A: > 100 µM (inactive)

Q: And the GI50 [32]?
A: > 100 µM (inactive)

Q: What about the GI50 [33] of the same molecule?
A: > 100 µM (inactive)

Q: And the GI50 [34]?
A: > 100 µM (inactive)

Q: What about the GI50 [35] of the same molecule?
A: > 100 µM (inactive)

Q: What about the GI50 [36] of the same molecule?
A: > 100 µM (inactive)

Q: What about the GI50 [37] of the same molecule?
A: > 100 µM (inactive)

Q: What about the GI50 [38] of the same molecule?
A: > 100 µM (inactive)

Q: What about the GI50 [40] of the same molecule?
A: > 100 µM (inactive)

Q: What about the GI50 [41] of the same molecule?
A: > 100 µM (inactive)

Q: And the GI50 [43]?
A: > 100 µM (inactive)

Q: What about the GI50 [46] of the same molecule?
A: > 100 µM (inactive)

Q: What about the GI50 [48] of the same molecule?
A: > 100 µM (inactive)

Q: And the GI50 [49]?
A: > 100 µM (inactive)

Q: And the GI50 [50]?
A: > 100 µM (inactive)

Q: What about the GI50 [51] of the same molecule?
A: > 100 µM (inactive)

Q: What about the GI50 [52] of the same molecule?
A: > 100 µM (inactive)

Q: What about the GI50 [53] of the same molecule?
A: > 100 µM (inactive)

Q: What about the GI50 [55] of the same molecule?
A: > 100 µM (inactive)

Q: What about the GI50 [56] of the same molecule?
A: > 100 µM (inactive)

Q: What about the GI50 [57] of the same molecule?
A: > 100 µM (inactive)

Q: And the GI50 [58]?
A: > 100 µM (inactive)
